Test results from patent publication EP2777394A1, “Agricultural adjuvant composition and process for its obtainment” (SC Teso Spec SRL, priority 2012, dated 2014).

How the values were obtained:
Type in all cases: in vivo
[1] = test system: leafminers flies, Liriomyza trifolii (Burgess); assay: Field test of spinosad with or without adjuvant A3 against leafminer larvae on muskmelon; settings: per sampled leaf, 3 days after treatment, acetamipirid 0.025%, spinosad 0.05%, adjuvant A3 0.4%
Method: Example 10. The effect of adjuvant A3, obtained according to Example 5, was tested to determine whether its addition improve the activity of spinosad against leafminers flies, Liriomyza trifolii (Burgess). Spinosad is a metabolite produced by biosynthetic process by the actinomycetes Saccharopolyspora spinosa, and provides excellent crop protection with a relatively low toxicity to non-target organisms, including many beneficial insects. For that reason spinosad is accepted on organic farming systems. […] Addition of the spraying adjuvant increase the efficacy of spinosad based insecticide in controlling leafminers larvae (Larson, 1997, Arthrop. Manag. Test. 22:415-416).
The experiment was done on the Fundulea experimental field, which characteristics were already presented in Example 6. The muskmelon (Cucumis melo L., cv. Charentais) experimental plots were established on 19th of April, 2012, using 25 days old transplants, on a density equivalent to 12.000 transplants per ha. The experimental filed where experiment was plotted was previously cultivated with corn and was fertilized with 200 kg/ha equivalent complex fertilizer NPK 15:15:15 (Azomure ? ), on beginning of March. Herbicidation was done by application on the whole surface of a dose of 4 l/ha Stomp 330 EC, sprayed in a mixture with 450 l water per ha, 10 days before transplantation, and incorporated in soil with a by harrowing with a disc harrow.
Plots of 20 m^2 were made with edges of two untreated rows, in random blocks, with 4 repetitions on each treatment. Application of treatments were done with a backpack sprayer SG10 (Stihl AG, Waiblingen, Germany), by spraying from 40 cm, with a spraying pressure set-up to 275 kPa, using a nozzle with flat jet and low drift (TeeJett® flat-fan TT11002 model, Spraying Systems Co., Wheaton, IL, USA). Were applied […], one in the phenophase of 3...4 leaves and in the phenophase 6...8 leaves, as a second treatment. In phenophase 3...4 leaves, one day after the treatment with insecticide, was applied also a treatment with Previcur 607 SL (propamocarb 607 g/l) for controlling the downy mildew (Pseudoperonospora cubensis), on the whole area of the experiment. The experimental treatments were: • V1 - control, untreated for Liriomyza trifolii; • V2 - acetamipirid 0.025% (Mospilan 20 SG, 200 g/kg acetamipirid, Nippon Soda Company, Tokio, Japonia), equivalent 0.1 kg/ha in a spraying norm of 400 l/ha, considered as standard for treatment of leafminers flies larvae because is a systemic insecticide; • V3 - spinosad 0.05% (Laser 240 SC, 240 g/l spinosad, Dow AgroSciences, Indianapolis, USA), equivalent 0.2 kg/ha at a spraying norm of 400 l/ha; • V4 - spinosad 0.05% (Laser 240 SC, 240 g/l spinosad, Dow AgroSciences, Indianapolis, USA), equivalent 0.2 kg/ha at a spraying norm of 400 l/ha + adjuvant A3, according to Example 5, 0.4%, equiv. to 1.6 kg at a spraying norm of 400 l/ha.
The impact of each treatment on leafminer larvae mortality was estimated by counting the number of live and dead / paralyzed larvae, and also of the empty and total mines per each sampled leaf. A total of 10 leaves per experimental plot were collected at 3 days after treatment and examined in the laboratory for presence of mines in leaves and larvae status in the mines. The data were processed by analysis of variance (Statistica 10, StatSoft). Tab. 11.The influence of spray adjuvant A3 on the efficacy of spinosad in controlling the leafminers larvae on muskmelon.

[2] = test system: Tomato plants (Lycopersicum esculentum cv. Cristal F1); assay: Protection of tomato plants against water stress by foliar glycine-betaine, with or without adjuvant A2 (greenhouse)
Method: Example 9. It was tested the efficacy of adjuvant A2, obtained according to Ex.4 on the performances of glycine-betaine, compound with an osmoprotectant action, regarding the protection of tomato plants against water stress. Glycine - betaine presents a molecule with quaternary nitrogen, strongly polar, with a reduced penetrability on the hydrophobic plant cuticle.
Tomato plants (Lycopersicum esculentum cv. Cristal F1), transplants of 60 days, were re-potted in vegetation pots of 25 cm dia. and 50 cm height, on which was introduced a synthetic grown substrate enriched with nutrients for the first week of plant growth (Canna Terra Professional Plus, Canna International BV). The vegetation pots were maintained in greenhouse conditions, at 22±2°C during the day and 17±2°C during the night, with a photoperiod of 12 hours, supplemented with light with an intensity of 160 µE/m^2/s, from a metal halide lamp, when the light intensity was below 500 µE/m^2/s. […] The grown substrate contained initial nutrient reserves, thus the plants were fertilized only one time, at 28 days after transplantation, by the application of 100 ml of nutritive solution 1 g/l of fertilizer 20 - 8 - 20 (N-P2O5-K2O, Eurofertil, TimacAgro Romania). The experiment was organized in a random bloc with 4 repetitions for each treatment, each repetition including 5 plants. It was used purified glycine-betaine (99%, Sigma Aldrich, St. Louis, Mo, US). The experimental treatments included also controls, sprayed only with water, water stress control and unstressed control. These experimental treatments were: • V1 - control unstressed, sprayed with water; 2 treatments x 2 ml per plant, equivalent 100 l/ha; • V2 - control water stressed, sprayed with water; 2 treatments x 2 ml per plant, equivalent 100 l/ha; • V3 - water stressed, sprayed with glycine-betaine; 2 treatments x 2 ml 5 mM per plant, equivalent 58,5 g in 100l/ha; […]; […]; • V5 - water stressed, sprayed with glycine -betaine and adjuvant, 2 treatments x 2 ml solution 5 mM betaine + 1% adjuvant A2 per plant, equivalent 58,5 g betaine and 1 kg adjuvant A2 in 100l/ha.
Treatments were applied in the 2nd and 29th day after transplantation, by spraying each plant with the help of a glass atomizer with metal top and plastisol bulb (model 15-RD, DeVilbiss Healthcare, Somerset, PA, USA). The unstressed control was irrigated once every five day at 100% field capacity, and the water stressed plants were irrigated each two weeks at 100% field capacity. […] The data were processed by analysis of variance (Statistica 10, StatSoft).

[3] = test system: common cocklebur (Xanthium strumarium); assay: Greenhouse test of adjuvants on nicosulfuron efficacy, common cocklebur; settings: nicosulfuron 50 g/ha, without adjuvant, Trend 90 0,1% or soybean oil methylate 1%
Method: (§1) Example 8. The basic adjuvant A1.3 was tested on greenhouse conditions in order to verify its effect on the performance increase of nicosulfuron, herbicide representative for the category of weakly acid herbicides from the sulfonylurea class, which solubility in water is increased on high pH. The used test plants were common cocklebur (Xanthium strumarium), dicotyledonous weed, and large crabgrass (Digitaria sanguinalis), monocotyledonous weed. The common cocklebur was sown on approx. 2 cm deep, in plastic pots of 15 cm diameter, and after emergence was thinned to only 2 plants. The large crabgrass was planted in the same type of plastic pots, at 1 cm deep, and after emergence was thinned to a cluster of around 15 plants. The pots contain a synthetic grown substrate enriched with nutrients for the first week of plant growth ([…] Professional Plus, Canna International BV, Oosterhout, Netherlands), and consequently were not applied fertilizers. […] At three weeks after the treatment it was determined the fresh weight of plants on each repetition by weighting and was estimated the phytotoxicity, using a scale from 0% (without visible symptoms) to 100% (plant completely destroyed). […]

[4] = test system: large crabgrass (Digitaria sanguinalis); assay: Greenhouse test of adjuvants on nicosulfuron efficacy, large crabgrass; settings: nicosulfuron 50 g/ha, without adjuvant, Trend 90 0,1% or soybean oil methylate 1%
Method: as §1

[5] = test system: winter wheat (Triticum aestivum L.), cultivar Capo; assay: Selenium biofortification of wheat grains by foliar sodium selenite, with or without adjuvant A1.2 (field experiment); settings: 300 l/ha; for Selenium content in the wheat grains (mcg/kg): applied at GS31; for Yield (kg/ha): yield with 86% dry matter
From the text: Example 7. On the experimental field from Fundulea was done also an experiment in order to establish the effect of adjuvant A1.2 on the biofortification treatment with sodium selenite applied as foliar fertilizers on wheat. Se (IV) from the sodium selenite is a selenium species which are not translocated from the radicular system into the foliar one through xylem (Zhu et al., 2009, Trends Plant Sci. 14:436-442), thus an eventually biofortification of the wheat yield resulted from the treatment with selenite is the result of the selenite absorbed through cuticle and not of that absorbed by radicular system after leakage on soil. The soil on which was done the experiment has the characteristics presented in the above tab. 6, and the total selenium content (HF + HNO3 + HCl) is 0.197 mg/kg.
The experiment was done of experimental plots of 25 m^2, with winter wheat (Triticum aestivum L.), cultivar Capo, cultivated in similar conditions with those already presented in Example 6 regarding the agrotechnics, base fertilization before seeding and crop protection. The experiment was done in random blocks in a Latin square, 4 treatments in 4 repetitions. The 4 treatments were: • V1 - control, treated with water, • V2 - sprayed with a solution of sodium selenite pentahidrate, Na2SeO3.5 H2O, 0.0111%, equiv. 10 g Se/ha for a spraying norm of 300 l/ha; • V3 - sprayed with a solution of sodium selenite pentahidrate, Na2SeO3.5 H2O, 0.0222%, equiv. 20 g Se/ha for a spraying norm of 300 l/ha; • V4 - sprayed with a solution of sodium selenite pentahidrate, Na2SeO3.5 H2O, 0.0111 %, equiv. 10 g Se/ha for a spraying norm of 300 l/ha and 0.5% spraying adjuvant A1.2 Ex.2, equivalent to a dose of 1.5 kg/ha.
Application of the solutions was done with a backpack sprayer SG10 (Stihl AG, Waiblingen, Germany), by spraying from 40 cm, with a spraying pressure set-up to 275 kPa, using a nozzle with flat jet and low drift (TeeJett® flat-fan TT11002 model, Spraying Systems Co., Wheaton, IL, USA). The treatments were applied during the growth stages GS31 (5th April 2012). On the end of the vegetation season each repetition was separately harvested, the realized production being expressed in kg/ha with 86% dry matter. In the wheat grain selenium was determined, by atomic absorption spectrophotometry with hydride generation (Tinggi et al., 1992, J. Food Comp. Anal. 5, 269-280). The date were analyzed by application of the linear general model, to determine the average values and the significance differences at a probability level of 5% (Statistica 10, StatSoft, Tulsa, OK, US). Tab. 8. Influence of the adjuvant A1.2 done according to the invention on the biofortification treatment of wheat grains (cv. Capo) with selenium.

[6] = V3 water stressed, 2x 5 mM equiv. 58,5 g in 100 l/ha
[7] = V3 water stressed, 2x 5 mM equiv. 58,5 g in 100 l/ha, 8 weeks after transplantation
[8] = fresh weight three weeks after treatment
[9] = three weeks after treatment, scale 0-100%

Compound	Dead larvae ([1]; First treatment)	Empty mines ([1]; First treatment)	Mines total ([1]; First treatment)	Mines with live larvae ([1]; First treatment)	Dead larvae ([1]; Second treatment)	Empty mines ([1]; Second treatment)	Mines total ([1]; Second treatment)	Mines with live larvae ([1]; Second treatment)	also measured
C/C(=N\C#N)N(C)Cc1ccc(Cl)nc1 [Acetamipirid, acetamipirid]	0.1c	0c	0.4a	0.1c	0.3c	0b	0.2a	0b	
C[N+](C)(C)CC(=O)O [glycine-betaine]									Leaves surfaces (mm^2) [2, 6]: 587.58±4.92ab mm^2; Number of Leaves [2, 6]: 28.00±2.1b; Plant height (cm) [2, 7]: 47.30±3.42c cm; Root length (cm) [2, 7]: 45.50±2.39b cm; Average yield** (g ripened fruits / plant) ([2]; V3 water stressed, 2x 5 mM equiv. 58,5 g in 100 l/ha, production for 30 days cycle of flowering - fructification): 223±28.2b g ripened fruits / plant; Leaves surfaces (mm^2) ([2]; V4 water stressed, 2x 5 mM equiv. 117 g in 100 l/ha): 663.16±5.84a mm^2; Root length (cm) ([2]; V4 water stressed, 2x 5 mM equiv. 117 g in 100 l/ha, 8 weeks after transplantation): 54.80±1.88b cm
COc1cc(OC)nc(NC(=O)NS(=O)(=O)c2ncccc2C(=O)N(C)C)n1 [nicosulfuron]									Mass reduction (% control) [3, 8]: 59c % control; Phytotoxicity (%) [3, 9]: 33c %; Mass reduction (% control) [4, 8]: 52c % control; Phytotoxicity (%) [4, 9]: 40c %
O=[Se](O)O [Na2SeO3.5 H2O, sodium selenite pentahidrate]									Selenium content in the wheat grains (mcg/kg) ([5]; equiv. 10 g Se/ha): 105b mcg/kg; Yield (kg/ha) ([5]; equiv. 10 g Se/ha): 4958a kg/ha; Selenium content in the wheat grains (mcg/kg) ([5]; equiv. 20 g Se/ha): 142a mcg/kg; Yield (kg/ha) ([5]; equiv. 20 g Se/ha): 4549b kg/ha
spinosad	1.8b	3.3b	8.2b	1.2b	3.1a	2.7a	6.8b	0.3a	
